According to DBAASP:
≈ marks a conversion by molar mass, not a printed value. Where “and” joins values, the source holds several entries; their conditions need not be identical. Equal values may be shown once.

Assays:
Assay in all cases: ≥ marks a high value that may be exact or a test limit, other limits are often not marked, values filed in µg/mL are converted to µM
[1] = system: Escherichia coli HB101
[2] = system: Escherichia coli ATCC 25922
[3] = system: Microbacterium oxydans
[4] = system: Escherichia coli
[5] = system: Burkholderia stabilis
[6] = system: Pseudomonas fluorescens
[7] = system: Staphylococcus aureus
[8] = system: Bacillus megaterium
[9] = system: Salmonella enterica subsp. enterica serovar Typhi
[10] = system: Lelliottia amnigena
[11] = system: Proteus sp.
[12] = system: Kluyvera cryocrescens
[13] = system: Bacillus cereus
[14] = system: Salmonella enterica subsp. enterica serovar Gallinarum
[15] = system: Sporosarcina ureae
[16] = system: Shigella sp.
[17] = system: Aeromonas hydrophila
[18] = system: Micrococcus luteus
[19] = system: Fusarium graminearum PH-1
[20] = system: Klebsiella pneumoniae KCTC 2208
[21] = system: Pseudomonas aeruginosa ATCC 27853
[22] = system: Klebsiella pneumoniae
[23] = system: Vibrio anguillarum ATCC 43308
[24] = system: Acinetobacter baumannii KCTC 2508
[25] = system: Staphylococcus aureus ATCC 25923
[26] = system: Micrococcus luteus ATCC 49732
[27] = system: Lactiplantibacillus plantarum 965
[28] = system: Latilactobacillus sakei NCDO 2714
[29] = system: Staphylococcus aureus MR
[30] = system: Candida parapsilosis ATCC 22019
[31] = system: Staphylococcus epidermidis NRRL B-4268
[32] = system: Klebsiella pneumoniae ATCC 27736
[33] = system: Cryptococcus neoformans
[34] = system: Escherichia coli ATCC 10536
[35] = system: Trichophyton mentagrophytes
[36] = system: Staphylococcus aureus ATCC 9144
[37] = system: Sporothrix schenckii
[38] = system: Bacillus subtilis ATCC 6633
[39] = system: Candida albicans
[40] = system: Aspergillus fumigatus
[41] = system: Pseudomonas aeruginosa ATCC BAA-427
[42] = system: Bacillus megaterium CIP 6620
[43] = system: Escherichia coli SBS 363
[44] = system: Staphylococcus aureus CIP 103428
[45] = system: Micrococcus luteus CIP 5345
[46] = system: Staphylococcus haemolyticus
[47] = system: Vibrio nigripulchritudo CIP 103195
[48] = system: Microbacterium maritypicum CIP 105733T
[49] = system: Corynebacterium stationis CIP 101282
[50] = system: Vibrio splendidus CIP 107715
[51] = system: Staphylococcus aureus SG511

With `CC[C@H](C)[C@H](NC(=O)[C@H](CCCN=C(N)N)NC(=O)[C@@H](N)CCCN=C(N)N)C(=O)N[C@@H](CCCN=C(N)N)C(=O)N1CCC[C@H]1C(=O)N[C@@H](CCCN=C(N)N)C(=O)N1CCC[C@H]1C(=O)N[C@@H](CCCN=C(N)N)C(=O)O` [RRIRPRPR] the MIC [1] was no less than 128 µM and the MIC [2] was greater than 128 µM.
`CC[C@H](C)[C@H](NC(=O)[C@H](Cc1cnc[nH]1)NC(=O)[C@H](CC(N)=O)NC(=O)[C@@H](NC(=O)[C@@H](NC(=O)[C@H](CC(C)C)NC(=O)[C@H](CC(=O)O)NC(=O)[C@@H]1CCCN1C(=O)[C@H](CC(C)C)NC(=O)[C@H](CCCCN)NC(=O)[C@H](Cc1c[nH]c2ccccc12)NC(=O)[C@@H](N)CCC(=O)O)[C@@H](C)CC)[C@@H](C)CC)C(=O)N[C@H](C(=O)N[C@@H](CC(C)C)C(=O)N[C@H](C(=O)N[C@@H](CCCN=C(N)N)C(=O)N[C@@H](CCCN=C(N)N)C(=O)N[C@@H](CC(N)=O)C(=O)N[C@H]1CSSC[C@@H](C(=O)NCC(=O)O)NC(=O)[C@H](CCCN=C(N)N)NC(=O)[C@H](Cc2ccc(O)cc2)NC(=O)[C@H](CCCCN)NC(=O)[C@H](Cc2ccccc2)NC1=O)[C@@H](C)O)[C@@H](C)O` [EWKLPDLIINHITLTRRNCFKYRCG] showed an MIC [3] of 0.164 µM (≈ 0.507 µg/mL), an MIC [4] of 16.4 µM (≈ 50.7 µg/mL) and an MIC [5] of no less than 164 µM. For the same compound, the MIC [6] was no less than 32.7 µM, the MIC [7] was 164 µM (≈ 507 µg/mL) and the MIC [8] was 3.27 µM (≈ 10.1 µg/mL). The MIC [9] was 16.4 µM (≈ 50.7 µg/mL), the MIC [10] was 16.4 µM (≈ 50.7 µg/mL) and the MIC [11] was no less than 164 µM. The MIC [12] was no less than 164 µM, the MIC [13] was 0.327 µM (≈ 1.01 µg/mL) and the MIC [14] was 1.64 µM (≈ 5.07 µg/mL). It also gave an MIC [15] of no less than 164 µM, an MIC [16] of 16.4 µM (≈ 50.7 µg/mL) and an MIC [17] of 1.64 µM (≈ 5.07 µg/mL). The MIC [18] was 16.4 µM (≈ 50.7 µg/mL).
`C[C@@H]1NC(=O)[C@@H](NC(=O)[C@@H]2CCCN2C(=O)CN)CSSC[C@@H](C(=O)O)NC(=O)[C@H](CC(N)=O)NC(=O)[C@H](Cc2cnc[nH]2)NC(=O)[C@H](CC(=O)O)NC(=O)[C@H](CO)NC1=O` [GPCASDHNC] showed an MIC [19] of no less than 48 µM.
`CC[C@H](C)[C@H](NC(=O)[C@@H](NC(=O)[C@H](Cc1cnc[nH]1)NC(=O)[C@H](CCCN=C(N)N)NC(=O)[C@H](C)NC(=O)[C@H](CCCN=C(N)N)NC(=O)[C@H](CC(C)C)NC(=O)[C@H](CO)NC(=O)[C@H](C)NC(=O)[C@H](CS)NC(=O)[C@H](CC(C)C)NC(=O)[C@@H](N)CC(N)=O)[C@@H](C)O)C(=O)N1CCC[C@H]1C(=O)N[C@@H](CCC(N)=O)C(=O)N[C@@H](CS)C(=O)N[C@@H](CCCCN)C(=O)N[C@@H](CCCCN)C(=O)N[C@@H](Cc1ccccc1)C(=O)NCC(=O)N[C@@H](CCCN=C(N)N)C(=O)N[C@@H](CCCN=C(N)N)C(=O)O` [NLCASLRARHTIPQCKKFGRR] was tested, and the MIC [20] was 16 µM (≈ 39.3 µg/mL), the MIC [21] was 32 µM (≈ 78.6 µg/mL) and the MIC [22] was > 32 µM and 16 µM. It also gave an MIC [23] of 5.09 µM (≈ 12.5 µg/mL), an MIC [24] of 16 µM (≈ 39.3 µg/mL) and an MIC [2] of 2.57 µM (≈ 6.3 µg/mL). The MIC [25] was 2.57 µM (≈ 6.3 µg/mL) and the MIC [26] was 2.57 µM (≈ 6.3 µg/mL).
`CC[C@H](C)[C@H](NC(=O)[C@H](C)NC(=O)[C@@H](NC(=O)[C@H](C)NC(=O)CN)[C@@H](C)O)C(=O)N[C@@H](CCCCN)C(=O)N[C@@H](CCC(N)=O)C(=O)N[C@H](C(=O)N[C@@H](CCCCN)C(=O)N[C@@H](CCCCN)C(=O)N[C@@H](CC(C)C)C(=O)N[C@@H](Cc1ccccc1)C(=O)N[C@@H](CCCCN)C(=O)N[C@@H](CCCCN)C(=O)N[C@@H](Cc1c[nH]c2ccccc12)C(=O)NCC(=O)N[C@@H](Cc1c[nH]c2ccccc12)C(=O)O)C(C)C` [GATAIKQVKKLFKKWGW] gave an MIC [27] of 0.4 µM (≈ 0.796 µg/mL) and an MIC [28] of 0.015 µM (≈ 0.0298 µg/mL).
For `CC(C)C[C@H](NC(=O)[C@H](CCCCN)NC(=O)[C@H](CC(C)C)NC(=O)[C@H](Cc1ccccc1)NC(=O)[C@H](CCCN=C(N)N)NC(=O)[C@H](CCCN=C(N)N)NC(=O)[C@H](Cc1ccccc1)NC(=O)[C@H](Cc1c[nH]c2ccccc12)NC(=O)[C@H](CCCCN)NC(=O)[C@H](CCCN=C(N)N)NC(=O)[C@H](Cc1ccccc1)NC(=O)[C@H](CCCN=C(N)N)NC(=O)[C@H](CCCN=C(N)N)NC(=O)[C@@H](N)Cc1ccccc1)C(=O)N[C@@H](Cc1ccccc1)C(N)=O` [FRRFRKWFRRFLKLF], the MIC [29] was 25 µM (≈ 55.1 µg/mL), the MIC [30] was 3 µM (≈ 6.61 µg/mL) and the MIC [31] was 13.2 µM (≈ 29.1 µg/mL). The MIC [32] was 6 µM (≈ 13.2 µg/mL), the MIC [33] was 6.1 µM (≈ 13.4 µg/mL) and the MIC [34] was 6 µM (≈ 13.2 µg/mL). For the same compound, the MIC [35] was 3 µM (≈ 6.61 µg/mL), the MIC [36] was 6.25 µM (≈ 13.8 µg/mL) and the MIC [37] was 3 µM (≈ 6.61 µg/mL). It also gave an MIC [38] of 11.3 µM (≈ 24.9 µg/mL), an MIC [39] of 3.1 µM (≈ 6.83 µg/mL) and an MIC [40] of 3 µM (≈ 6.61 µg/mL). It also gave an MIC [41] of 25 µM (≈ 55.1 µg/mL).
For `CC[C@H](C)[C@H](NC(=O)[C@@H]1CCCN1C(=O)CN)C(=O)N[C@@H](CCCN=C(N)N)C(=O)N[C@@H](CCCN=C(N)N)C(=O)N1CCC[C@H]1C(=O)N[C@@H](CCCCN)C(=O)N1CCC[C@H]1C(=O)N[C@@H](CCCN=C(N)N)C(=O)N1CCC[C@H]1C(=O)N[C@@H](CCCN=C(N)N)C(=O)N[C@@H](CCC(N)=O)C(=O)N[C@@H](CCCN=C(N)N)C(=O)N1CCC[C@H]1C(=O)N[C@@H](CCC(=O)O)C(=O)O` [GPIRRPKPRPRQRPE], the MIC [42] was 20 µM (≈ 36.8 µg/mL), the MIC [43] was no less than 80 µM and the MIC [44] was 20 µM (≈ 36.8 µg/mL). For the same compound, the MIC [45] was no less than 80 µM, the MIC [46] was 20 µM (≈ 36.8 µg/mL) and the MIC [47] was no less than 40 µM. For the same compound, the MIC [48] was 20 µM (≈ 36.8 µg/mL), the MIC [49] was 20 µM (≈ 36.8 µg/mL) and the MIC [50] was no less than 40 µM. For the same compound, the MIC [51] was 20 µM (≈ 36.8 µg/mL).
